Values quoted from earlier work in patent publication EP2566462B1, “IMMEDIATE RELEASE FORMULATIONS AND DOSAGE FORMS OF GAMMA-HYDROXYBUTYRATE” (Jazz Pharmaceuticals Inc., priority 2010, dated 2011).

How the values were obtained:
[1] = in man, given orally
[2] = tested on: patients with hyperkinetic movement disorders including ethanol responsive myoclonus and essential tremor; conditions: open label, five patients

For O=C([O-])CCCO.[Na+] [sodium oxybate, Sodium gamma-hydroxybutyrate], the plasma half-life [1] is listed as “about 45 minutes”, the “blinded ratings of ethanol responsive myoclonus and tremor” value [2] is listed as “dose-dependent improvements” and the tolerability [2] is listed as “tolerated at doses that provided clinical benefit”.
